Source: patent US7671203B2, “Method and system for separation and purification of at least one narcotic alkaloid using reverse phase preparative chromatography” (Mallinckrodt Inc., priority 2003, dated 2010)

Assay: Solubility of codeine in water

COc1ccc2c3c1O[C@H]1[C@@H](O)C=C[C@H]4[C@@H](C2)N(C)CC[C@@]341 [Codeine, codeine]
concentration above which codeine is not fully soluble in water: ≤ 30 grams/liter
